Source: PubChem BioAssay (NCI)
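Growth conditions: 96-well plates. Treatment: test compound, 48 hours, 5 concentrations. Analysis: linear interpolation between bracketing concentrations; unreached endpoints set to highest concentration. At the GI50, growth is halved. At the TGI there is no net growth.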

How the values were obtained:
Assay in all cases: DTP human tumour cell line panel, 48 h
NCI-H522 lung = test system: NCI-H522 lung
MDA-MB-231 breast = test system: MDA-MB-231 breast
U251 CNS = test system: U251 CNS
T-47D breast = test system: T-47D breast
HCC-2998 colon = test system: HCC-2998 colon
SNB-75 CNS = test system: SNB-75 CNS
OVCAR-3 ovarian = test system: OVCAR-3 ovarian
SF-295 CNS = test system: SF-295 CNS
OVCAR-5 ovarian = test system: OVCAR-5 ovarian
TK-10 renal = test system: TK-10 renal

Row | SMILES | GI50 (NCI-H522 lung) [µM] | TGI (NCI-H522 lung) [µM] | GI50 (MDA-MB-231 breast) [µM] | TGI (MDA-MB-231 breast) [µM] | GI50 (U251 CNS) [µM] | TGI (U251 CNS) [µM] | GI50 (T-47D breast) [µM] | TGI (T-47D breast) [µM] | GI50 (HCC-2998 colon) [µM] | TGI (HCC-2998 colon) [µM] | GI50 (SNB-75 CNS) [µM] | TGI (SNB-75 CNS) [µM] | GI50 (OVCAR-3 ovarian) [µM] | TGI (OVCAR-3 ovarian) [µM] | GI50 (SF-295 CNS) [µM] | TGI (SF-295 CNS) [µM] | GI50 (OVCAR-5 ovarian) [µM] | TGI (OVCAR-5 ovarian) [µM] | GI50 (TK-10 renal) [µM] | TGI (TK-10 renal) [µM]
1 | Nc1c(C(=O)c2cccc(OCCN3CCOCC3)c2)cnn1-c1ccc(F)cc1 | > 25 | > 25 | > 25 | > 25 | > 25 | > 25 | > 23.7 | > 25 | > 25 | > 25 | > 25 | > 25 | > 25 | > 25 | > 25 | > 25 | > 25 | > 25 | > 25 | > 25
2 | COc1ccc2nc(NCCCNCCO)c3sc4ccc(F)cc4c(=O)c3c2c1 | 1.77 | 3.55 | 1.43 | 2.84 | 1.62 | 3.38 | 1.68 | 3.93 | 1.76 | 3.61 | 1.55 | 3.05 | 1.8 | 3.38 | 1.73 | 3.22 | 1.5 | 2.87 | 1.72 | 3.3
3 | C(CCc1nnc2c(n1)CCCC2)Cc1nnc2c(n1)CCCC2 |  | > 100 |  | > 100 |  | > 100 |  | > 100 |  | > 100 |  | > 100 |  | > 100 |  | > 100 |  | > 100 |  | > 100
4 | Cc1cc(=O)oc2cc(OC(=O)Nc3ccc(Cl)c(Cl)c3)ccc12 |  | 54.4 |  | 58 |  | 56.8 |  | 68.3 |  | 41 |  | 67.3 |  | 50.2 |  | 74.4 |  | 61.9 |  | > 100
5 | CC(C)(C)OC(=O)NCCCCCCCCn1c2c(c3ccccc3c1=O)C(=O)c1ccccc1-2 | 13.5 | > 43.6 | 13.5 | > 47.5 | 16.7 | > 50 | > 48 | > 50 | > 50 | > 50 | 10.6 | 29.2 |  | > 39.4 | 11.1 | > 41.6 | > 43 | > 50 | 11.7 | 30.7
6 | O=C(O)CCC1COc2ccccc2O1 (centres undefined) |  | > 10 |  | > 10 |  | > 10 |  | > 10 |  | > 10 |  | > 10 |  | > 10 |  | > 10 |  | > 10 |  | > 10
7 | O=C(Oc1ccc([N+](=O)[O-])cc1)N1CCN(Cc2cccc(Oc3ccccc3)c2)CC1 | > 50.9 | > 100 | > 100 | > 100 | > 100 | > 100 | 17.7 | > 100 | > 100 | > 100 | > 100 | > 100 | > 96.2 | > 100 | 62.9 | > 100 | > 100 | > 100 | > 75.9 | > 100
